Values quoted from earlier work in patent US12662687B2, “Methods and compositions for the production of xylitol from xylose utilizing dynamic metabolic control” (Duke University, priority 2020, dated 2026).

Molecular target: membrane bound transhydrogenase encoded by the pntAB genes (Escherichia coli, UniProt P07001+P0AB67)
Details: competitive inhibitor, reported value

Sequence of membrane bound transhydrogenase encoded by the pntAB genes (P07001 whole entry): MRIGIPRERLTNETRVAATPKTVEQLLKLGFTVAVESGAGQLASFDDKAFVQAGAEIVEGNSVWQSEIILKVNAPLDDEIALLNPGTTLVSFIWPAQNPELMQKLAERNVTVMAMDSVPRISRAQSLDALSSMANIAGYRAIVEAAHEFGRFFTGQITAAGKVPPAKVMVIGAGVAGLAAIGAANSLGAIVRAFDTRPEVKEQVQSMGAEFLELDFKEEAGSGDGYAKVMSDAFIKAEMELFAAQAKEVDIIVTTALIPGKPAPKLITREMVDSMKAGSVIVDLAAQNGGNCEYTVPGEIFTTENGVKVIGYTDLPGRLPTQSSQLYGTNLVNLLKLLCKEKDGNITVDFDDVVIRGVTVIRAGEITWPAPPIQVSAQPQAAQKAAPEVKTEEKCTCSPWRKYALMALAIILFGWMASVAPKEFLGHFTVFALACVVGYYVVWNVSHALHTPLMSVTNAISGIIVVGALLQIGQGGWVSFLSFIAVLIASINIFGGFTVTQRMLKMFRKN
Sequence of membrane bound transhydrogenase encoded by the pntAB genes (P0AB67 whole entry): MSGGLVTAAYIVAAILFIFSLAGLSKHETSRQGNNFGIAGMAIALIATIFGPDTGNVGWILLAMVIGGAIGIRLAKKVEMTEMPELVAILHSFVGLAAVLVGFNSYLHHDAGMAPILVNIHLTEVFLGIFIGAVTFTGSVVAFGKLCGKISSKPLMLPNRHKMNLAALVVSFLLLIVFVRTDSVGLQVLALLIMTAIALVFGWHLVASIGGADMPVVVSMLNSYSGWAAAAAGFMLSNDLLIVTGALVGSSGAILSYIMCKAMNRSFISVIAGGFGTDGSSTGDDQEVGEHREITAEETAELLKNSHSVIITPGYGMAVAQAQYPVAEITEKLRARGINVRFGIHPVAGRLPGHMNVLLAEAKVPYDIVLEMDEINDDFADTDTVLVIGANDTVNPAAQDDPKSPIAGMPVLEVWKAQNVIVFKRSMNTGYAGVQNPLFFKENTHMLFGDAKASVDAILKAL

In the case of `CCCCCCCCCCCCCCCC(=O)SCCNC(=O)CCNC(=O)[C@H](O)C(C)(C)COP(=O)(O)OP(=O)(O)OC[C@H]1O[C@@H](n2cnc3c(N)ncnc32)[C@H](O)[C@@H]1OP(=O)(O)O` [Palmitoyl-CoA], the Ki is listed as 1000 to 5000 nM.
